# Measurements: patent publication EP4733299A1, “SULFUR-CONTAINING FUSED RING COMPOUND, PHARMACEUTICAL COMPOSITION CONTAINING SAME, AND PREPARATION METHOD THEREFOR AND USE THEREOF” (Shenzhen Braegen Pharmaceutical Co., Ltd., priority 2023, dated 2024)
# Molecular target: T1, a-Syn aggregates (Homo sapiens, UniProt P37840, A53T)
# T1 construct: tissue The Jackson Laboratory 017682; host or cells: brain sections of rotenone-treated transgenic mice
# Assay: Binding specificity on brain slices of rotenone-treated SNCA transgenic mice
# Details: for capture of a-Syn aggregates: brain slices, rotenone-treated SNCA Tg mice, Fig. 2
# Experimental: To further explore whether the positive compounds selectively bind to Lewy bodies, brain slices from mice were used to test the binding specificity assays.
# Staining with a-Synuclein protein coding gene (SNCA) transgenic mice (the Jackson Laboratory; stock numbers: 017682) were treated with rotenone (Oral gavage of rotenone under the following protocol: Mice were treated with 0.1 mL/25 g of vehicle containing 1% methylcellulose (Sigma, Catalog No.: M0512) and 1.25% chloroform (Sigma, Catalog No.: 2432) or a solution containing 0.625 mg/mL of rotenone (ULTRA Scientific, Catalog No.: PST-890) with 1% methylcellulose and 1.25% chloroform. We prepared rotenone solution by dissolving rotenone in chloroform and then diluting into 1% methylcellulose solution while mixing vigorously. Rotenone or vehicle control was orally administered with a 1.2 x 60 mm gavage (Unimed, Switzerland) once a day for 5 days/week, consecutively for 3 months.), which contains abundant LB-like inclusions. Furthermore, brain slices from NFT abundant Tau P301S mice and Aβ-enriched 5 x FAD mice were also used separately.
# The brain slices were fixed and incubated for 12 h at 4 °C with primary antibodies followed by incubation with Alexa Fluor 568-, Alexa Fluor 488-, or Alexa Fluor 647-conjugated secondary antibodies (Invitrogen) for 3 h at room temperature. Then stained with ThS (Sigma, Catalog No.: T1892) or candidate compounds at room temperature, 4',6-diamidino-2-phenylindole (DAPI, 1 µg/ml) (Sigma-Aldrich) was used for the nuclear staining. The slides were imaged with Olympus FluoView FV1000 confocal laser scanning microscope using Olympus FluoView software to acquire data.
capture of a-Syn aggregates,Molecule,"co-localization with aggregates in the brain sections (positive control, mouse brain sections)"
sensitively captured a-Syn aggregates,"COc1cc(/C=C/c2nc3cc(C)c(N(C)CCOCCF)cc3s2)ccc1O [Compound A, (E)-4-(2-(6-((2-(2-fluoroethoxy)ethyl)(methyl)amino)-5-methylbenzo[d]thiazol-2-yl)vinyl)-2-methoxyphenol]",
sensitively captured a-Syn aggregates,"COc1cc(/C=C/c2nc3cc(C)c(N(C)CCOCCF)cc3s2)cc(Br)c1O [Compound S, (E)-2-bromo-4-(2-(6-((2-(2-fluoroethoxy)ethyl)(methyl)amino)-5-methylbenzo[d]thiazol-2-yl)vinyl)-6-methoxyphenol]",
,"thioflavin-S [ThS, reference compound]",co-localized with all of these aggregates
